The nature of the data set: Particle size measurement by dynamic light scattering. The note with it: steps (a) to (c) without palmitoyl-L-carnitine chloride. The class given is physicochemical. Here is the method: [1] Particle Size Measurement
The particle size of particles contained in the nonaqueous composition for external use on the skin 1 week after preparation was measured by the dynamic light scattering method. Specifically, the measurement was performed on the number mode using a nanoparticle analysis system (Zetasizer Nano ZSP model manufactured by Malvern Instruments Ltd.).

Take sucrose erucic acid ester: the “Particle size of composition containing particles of the surfactant alone” value is “about 2.5 nm”.
